Results as given in patent publication US11091482B2, “Isoxazolyl-carbonyloxy azabicyclo[3.2.1]octanyl compounds as FXR activators” (ARDELYX, INC., priority 2016, dated 2021).

Experiments:
[1] = biological target: ligand binding domain of human FXR (Homo sapiens (Human), UniProt Q96RI1); experiment: FXR ligand binding assay (LanthaScreen FRET); settings: for Emax: read-out: % Efficacy; for FXR pEC50 / EC50 / % Efficacy: FXR ligand binding assay; for FXR pEC50 / EC50: -log EC50; for EC50: read-out: FXR pEC50 (converted); for % Efficacy: extent of activation relative to GW4064;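 for all read-outs here: TR-FRET coactivator recruitment: ligand-induced binding of fluorescein-labelled SRC2-2 peptide to GST-tagged FXR LBD detected via Tb anti-GST antibody, serial compound dilutions, 3-parameter logistic fit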
Method: The affinity of FXR ligands for the ligand binding domain of FXR was determined using a commercially available human FXR ligand binding assay (LanthaScreen, Thermofisher Cat #PV4833). […] Binding of FXR ligands to the FXR ligand binding domain promotes binding of the fluorescein-labelled SRC2-2 peptide. This causes a FRET signal between the terbium-labelled anti-GST antibody and the fluorescein-labelled SRC peptide which are both bound to the FXR ligand binding domain.
Test compounds are dissolved in DMSO and a 3-fold serial dilution series is generated, then further diluted into assay buffer. The compounds are mixed with 5 nM GST-tagged FXR ligand binding domain, 5 nM Tb-labelled anti-GST antibody and 500 nM fluorcscein-labelled SRC2-2 peptide in a pH 7.4 buffer. The reaction is incubated at room temperature for 1 hour, then the FRET signal is measured as the ratio of the 520 nm/495 nm emission following excitation at 340 nm. The change in FRET signal is plotted against the test article concentration and fit to a 3-parameter logistical equation.

[2] = biological target: human Farnesoid X receptor ligand-binding domain/Gal4 DNA binding domain chimera (Homo sapiens (Human), UniProt Q96RI1); experiment: Cell-based FXR beta-lactamase reporter assay (FXR-UAS-bla HEK 293T cells); settings: for Emax: HEK-293T, read-out: % Efficacy; for EC50 / FXR pEC50 / % Efficacy: cellular FXR beta-lactamase reporter assay; for EC50 / FXR pEC50: -log EC50; for EC50: read-out: FXR pEC50 (converted); for % Efficacy: extent of activation relative to GW4064
Method: FXR activation was measured using a cell line and procedure obtained from Life Technologies (Cat #K1691). FXR-UAS-bla HEK 293T cells contain a human Farnesoid X receptor ligand-binding domain/Gal4 DNA binding domain chimera stably integrated into the CellSensor® UAS-bla HEK 293T cell line. The CellSensor® UAS-bla HEK 293T contains a beta-lactamase reporter gene under control of a UAS response element stably integrated into HEK 293T cells. Activation of FXR by bound ligands results in transcriptional activation of the beta-lactamase reporter gene, which is detected via assay of beta-lactamase activity. Cells are harvested and diluted into assay medium containing phenol red-free DMEM supplemented with 2% Charcoal-stripped FBS, pyruvate, non-essential amino acids. Cells are then transferred to a 384 well assay plate. Test compounds are dissolved in DMSO and a 3-fold serial dilution series is generated, then further diluted into assay medium. […] A FRET-based […] is loaded into cells as its acetomethoxy ester. Intracellular esterases liberate free CCF4, a cephalosporin core linking 7-hydroxycoumarin to fluorescein. In the presence of beta-lactamase activity produced in the presence of FXR agonists, cleavage of CCF4 spatially separates the two dyes and disrupts FRET, so that exciting the coumarin at 409 nm now produces a blue fluorescence signal at 447 nm. The change in FRET signal is plotted against the test compound concentration and fit to a 3-parameter logistical equation.

Sequence of ligand binding domain of human FXR (Q96RI1 262-486): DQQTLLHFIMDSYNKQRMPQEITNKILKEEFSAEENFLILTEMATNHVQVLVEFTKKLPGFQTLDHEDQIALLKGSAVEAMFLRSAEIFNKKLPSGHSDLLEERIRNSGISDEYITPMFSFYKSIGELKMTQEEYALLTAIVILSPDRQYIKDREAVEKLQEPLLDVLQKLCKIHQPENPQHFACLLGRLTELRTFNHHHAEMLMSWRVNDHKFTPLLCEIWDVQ
Sequence of human Farnesoid X receptor ligand-binding domain/Gal4 DNA binding domain chimera (Q96RI1 262-486, stated change not applied): as the sequence (Q96RI1 262-486) above

SMILES	Emax [1]	Emax [2]	EC50 [2]	FXR pEC50 [1]	EC50 [1]	% Efficacy [1]	FXR pEC50 [2]	% Efficacy [2]
O=C(O)c1ccc(N2[C@@H]3CC[C@H]2C[C@@H](OC(=O)c2c(-c4c(Cl)cccc4Cl)noc2C2CC2)C3)c(F)c1 [Compound I-35, 4-[(1R,3R,5S)-3-[5-Cyclopropyl-3-(2,6-dichlorophenyl)-1,2-oxazole-4-carbonyloxy]-8-azabicyclo[3.2.1]octan-8-yl]-3-fluorobenzoic Acid]	92%	116%	31.6 nM					
O=C(O)c1ccc(N2[C@@H]3CC[C@H]2C[C@@H](OC(=O)c2c(-c4c(Cl)cccc4Cl)noc2C2CC2)C3)c(Cl)c1 [Compound I-36, 3-chloro-4-[(1R,3R,5S)-3-[5-cyclopropyl-3-(2,6-dichlorophenyl)-1,2-oxazole-4-carbonyloxy]-8-azabicyclo[3.2.1]octan-8-yl]benzoic acid]	106%	99%	158 nM	7.3				
O=C(O)c1ccc(N2[C@@H]3CC[C@H]2C[C@@H](OC(=O)c2c(-c4c(Cl)cccc4Cl)noc2C2CC2)C3)cc1C(F)(F)F [Compound I-37, 4-[(1R,3R,5S)-3-[5-cyclopropyl-3-(2,6-dichlorophenyl)-1,2-oxazole-4-carbonyloxy]-8-azabicyclo[3.2.1]octan-8-yl]-2-(trifluoromethyl)benzoic acid]	50%	93%	100 nM	7.7				
O=C(O)c1ccc(N2[C@@H]3CC[C@H]2C[C@@H](OC(=O)c2c(-c4c(Cl)cccc4Cl)noc2C2CC2)C3)c(C(F)(F)F)c1 [Compound I-38, 4-[(1R,3R,5S)-3-[5-cyclopropyl-3-(2,6-dichlorophenyl)-1,2-oxazole-4-carbonyloxy]-8-azabicyclo[3.2.1]octan-8-yl]-3-(trifluoromethyl)benzoic acid]	80%	112%	79.4 nM	6.6				
COc1cc(N2[C@@H]3CC[C@H]2C[C@@H](OC(=O)c2c(-c4c(Cl)cccc4Cl)noc2C2CC2)C3)ccc1C(=O)O [Compound I-39, 4-[(1R,3R,5S)-3-[5-cyclopropyl-3-(2,6-dichlorophenyl)-1,2-oxazole-4-carbonyloxy]-8-azabicyclo[3.2.1]octan-8-yl]-2-methoxybenzoic acid]	64%	114%	100 nM	6.8				
COc1cc(C(=O)O)ccc1N1[C@@H]2CC[C@H]1C[C@@H](OC(=O)c1c(-c3c(Cl)cccc3Cl)noc1C1CC1)C2 [Compound I-40, 4-[(1R,3R,5S)-3-[5-cyclopropyl-3-(2,6-dichlorophenyl)-1,2-oxazole-4-carbonyloxy]-8-azabicyclo[3.2.1]octan-8-yl]-3-methoxybenzoic acid]	103%	117%	39.8 nM		63.1 nM			
O=C(O)c1ccc(N2[C@@H]3CC[C@H]2C[C@@H](OC(=O)c2c(-c4c(Cl)cccc4Cl)noc2C2CC2)C3)cc1F [Compound I-41, 4-[(1R,3R,5S)-3-[5-cyclopropyl-3-(2,6-dichlorophenyl)-1,2-oxazole-4-carbonyloxy]-8-azabicyclo[3.2.1]octan-8-yl]-2-fluorobenzoic acid]	92%	117%	20 nM	7.7				
O=C(O)c1cc(F)cc(N2[C@@H]3CC[C@H]2C[C@@H](OC(=O)c2c(-c4c(Cl)cccc4Cl)noc2C2CC2)C3)c1 [Compound I-42, 3-[(1R,3R,5S)-3-[5-cyclopropyl-3-(2,6-dichlorophenyl)-1,2-oxazole-4-carbonyloxy]-8-azabicyclo[3.2.1]octan-8-yl]-5-fluorobenzoic acid]	38%	85%	79.4 nM	8				
O=C(O)c1ccc(N2[C@@H]3CC[C@H]2C[C@@H](OC(=O)c2c(-c4c(Cl)cccc4OC(F)F)noc2C2CC2)C3)c(F)c1 [Compound I-43, 4-[(1R,3R,5S)-3-{3-[2-chloro-6-(difluoromethoxy)phenyl]-5-cyclopropyl-1,2-oxazole-4-carbonyloxy}-8-azabicyclo[3.2.1]octan-8-yl]-3-fluorobenzoic Acid]	72%	108%	39.8 nM		50.1 nM			
CS(=O)(=O)NC(=O)c1ccc(N2[C@@H]3CC[C@H]2C[C@@H](OC(=O)c2c(-c4c(Cl)cccc4Cl)noc2C2CC2)C3)cc1 [Compound I-44, (1R,3R,5S)-8-[4-(methanesulfonylcarbamoyl)phenyl]-8-azabicyclo[3.2.1]octan-3-yl 5-cyclopropyl-3-(2,6-dichlorophenyl)-1,2-oxazole-4-carboxylate]	124%	117%	6.31 nM					
CCCS(=O)(=O)NC(=O)c1ccc(N2[C@@H]3CC[C@H]2C[C@@H](OC(=O)c2c(-c4c(Cl)cccc4Cl)noc2C2CC2)C3)cc1 [Compound I-45, (1R,3R,5S)-8-{4-[(propane-1-sulfonyl)carbamoyl]phenyl}-8-azabicyclo[3.2.1]octan-3-yl 5-cyclopropyl-3-(2,6-dichlorophenyl)-1,2-oxazole-4-carboxylate]				8.3		130%	8.6	
CCCCCS(=O)(=O)NC(=O)c1ccc(N2[C@@H]3CC[C@H]2C[C@@H](OC(=O)c2c(-c4c(Cl)cccc4Cl)noc2C2CC2)C3)cc1 [Compound I-46, (1R,3R,5S)-8-{4-[(pentane-1-sulfonyl)carbamoyl]phenyl}-8-azabicyclo[3.2.1]octan-3-yl 5-cyclopropyl-3-(2,6-dichlorophenyl)-1,2-oxazole-4-carboxylate]				8.2			8.5	110%
CC(C)S(=O)(=O)NC(=O)c1ccc(N2[C@@H]3CC[C@H]2C[C@@H](OC(=O)c2c(-c4c(Cl)cccc4Cl)noc2C2CC2)C3)cc1 [Compound I-47, (1R,3R,5S)-8-{4-[(propane-2-sulfonyl)carbamoyl]phenyl}-8-azabicyclo[3.2.1]octan-3-yl 5-cyclopropyl-3-(2,6-dichlorophenyl)-1,2-oxazole-4-carboxylate]				7.8		168%	8.5	124%
O=C(NS(=O)(=O)C1CC1)c1ccc(N2[C@@H]3CC[C@H]2C[C@H](OC(=O)c2c(-c4c(Cl)cccc4Cl)noc2C2CC2)C3)cc1 [Compound I-48, (1R,3S,5S)-8-{4-[(cyclopropanesulfonyl)carbamoyl]phenyl}-8-azabicyclo[3.2.1]octan-3-yl 5-cyclopropyl-3-(2,6-dichlorophenyl)-1,2-oxazole-4-carboxylate]				8.2		124%	8.6	130%
O=C(NS(=O)(=O)CC1CC1)c1ccc(N2[C@@H]3CC[C@H]2C[C@H](OC(=O)c2c(-c4c(Cl)cccc4Cl)noc2C2CC2)C3)cc1 [Compound I-49, (1R,3S,5S)-8-[4-(cyclopropylmethanesulfonylcarbamoyl)phenyl]-8-azabicyclo[3.2.1]octan-3-yl 5-cyclopropyl-3-(2,6-dichlorophenyl)-1,2-oxazole-4-carboxylate]				8		128%	8.1	107%
CS(=O)(=O)NC(=O)c1ccc(N2[C@@H]3CC[C@H]2C[C@@H](OC(=O)c2c(-c4c(Cl)cccc4Cl)noc2C2CC2)C3)c(F)c1 [Compound I-51, (1R,3R,5S)-8-[2-fluoro-4-(methanesulfonylcarbamoyl)phenyl]-8-azabicyclo[3.2.1]octan-3-yl 5-cyclopropyl-3-(2,6-dichlorophenyl)-1,2-oxazole-4-carboxylate]	139%	105%	5.01 nM					
CS(=O)(=O)NC(=O)c1ccc(N2[C@@H]3CC[C@H]2C[C@@H](OC(=O)c2c(-c4c(Cl)cccc4Cl)noc2C2CC2)C3)c(Cl)c1 [Compound I-52, (1R,3R,5S)-8-[2-chloro-4-(methanesulfonylcarbamoyl)phenyl]-8-azabicyclo[3.2.1]octan-3-yl 5-cyclopropyl-3-(2,6-dichlorophenyl)-1,2-oxazole-4-carboxylate]	110%	109%	15.8 nM					
N#Cc1ccc(N2[C@@H]3CC[C@H]2C[C@@H](OC(=O)c2c(-c4c(Cl)cccc4Cl)noc2C2CC2)C3)cc1O [Compound I-53, (1R,3R,5S)-8-(4-cyano-3-hydroxyphenyl)-8-azabicyclo[3.2.1]octan-3-yl 5-cyclopropyl-3-(2,6-dichlorophenyl)-1,2-oxazole-4-carboxylate]	58%	81%	251 nM					
O=C(O)c1ncc(N2[C@@H]3CC[C@H]2C[C@@H](OC(=O)c2c(-c4c(Cl)cccc4Cl)noc2C2CC2)C3)cn1 [Compound I-54, 5-[(1R,3R,5S)-3-[5-Cyclopropyl-3-(2,6-dichlorophenyl)-1,2-oxazole-4-carbonyloxy]-8-azabicyclo[3.2.1]octan-8-yl]pyrimidine-2-carboxylic Acid]	46%	115%	> 20000 nM					
